# The source made the active and inactive calls.
# Experiments:
# [1] = biological target: T1, Microphthalmia-associated transcription factor (Homo sapiens, UniProt O75030); assay: reducers of TRPM1 reporter luminescence, concentration series – cell-based, SK-MEL-5, cherry-picked, set 3, MITF inhibitor project, dose response (AID 493073); assay type: functional;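 also: SK-MEL-5 melanoma cells with luciferase driven by the MITF target TRPM1 promoter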
# T1 sequence (O75030 whole entry): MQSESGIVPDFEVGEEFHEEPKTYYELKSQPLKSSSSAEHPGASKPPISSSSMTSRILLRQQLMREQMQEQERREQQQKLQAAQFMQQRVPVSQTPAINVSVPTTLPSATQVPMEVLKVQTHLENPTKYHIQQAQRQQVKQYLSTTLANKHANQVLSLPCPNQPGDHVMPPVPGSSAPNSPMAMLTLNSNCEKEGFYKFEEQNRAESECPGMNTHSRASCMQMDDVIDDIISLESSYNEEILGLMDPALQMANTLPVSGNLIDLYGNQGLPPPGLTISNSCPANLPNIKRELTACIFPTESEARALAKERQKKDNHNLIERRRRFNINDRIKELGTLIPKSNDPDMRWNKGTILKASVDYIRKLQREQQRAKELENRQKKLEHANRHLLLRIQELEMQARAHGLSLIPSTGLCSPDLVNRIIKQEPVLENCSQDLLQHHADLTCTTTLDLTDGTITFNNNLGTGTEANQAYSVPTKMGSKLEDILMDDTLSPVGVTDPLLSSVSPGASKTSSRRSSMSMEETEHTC
# [2] = Luminescence Cell-Based Dose Response HTS to Identify Inhibitors of 5'UTR Stem-Loop Driven Prion Protein mRNA Translation in H4 Neuroglioblastoma Cells. [Related pubchem assays: 1827 (Project Summary), 1813 (Primary HTS)]; assay type: functional
# [3] = HEK-293T cell viability reduction – luminescence, B-cell screen hits, cytotoxicity control for BCR NF-kB inhibitor project, dose response (AID 489021); assay type: functional, cell-based;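 also: HEK-293T cells carrying an NF-kB luciferase reporter; cells exposed to compound for about 14 hours before viability readout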
# [4] = luciferase reporter signal suppression in cells – H4 neuroglioma cells, luminescence, dose response (AID 1990); assay type: functional, cell-based
# [5] = alpha-synuclein stem-loop luciferase translation blockers – H4 neuroglioma cells, luminescence, confirmation (AID 1988); assay type: functional, cell-based
# [6] = viability of uninfected HEp-2 cells – cell-based, HTS, cytotoxicity control for RSV inhibitor project, dose response (AID 2410); assay type: functional; settings: human respiratory syncytial virus
# [7] = viability of HCT116 lacking mutant beta-catenin – cell-based, human colon tumor, dose response (AID 1045); assay type: functional;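 also: HCT116 colon tumor cells with beta catenin knocked out; cells exposed to compound for 60 hours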
# [8] = viability of PTEN-deleted HCT116 cells – cell-based, HCT116 PTEN knockout, dose response (AID 1047); assay type: functional;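 also: HCT116 colon tumor cells with PTEN knocked out; cells exposed to compound for 60 hours before readout; potency for loss of cell viability measured by luminescence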
# [9] = viability loss in THP-1 monocytes – THP-1 cells, cytotoxicity control for Vif-APOBEC3G degradation inhibitor project, dose response (AID 1117359); assay type: functional; settings: THP-1
# [10] = system: Streptococcus sp. 'group A'; assay: Streptococcus pyogenes SK(-)GAS viability under kanamycin – luminescence, BacTiterGlo, confirmation, counter-screen for streptokinase expression inhibitor project, dose response (AID 1900); assay type: functional, organism-based
# [11] = toxicity toward HepG2 liver cells – cell-based, plate reader, cherry-pick, antagonist series, cytotoxicity control, dose response (AID 743416); assay type: functional
# [12] = viability loss in HEK293 cells – cell-based, plate reader, cherry-picked samples, cytotoxicity control, dose response (AID 743446); assay type: functional
# [13] = A549 cell cytotoxicity, dose response, cytotoxicity control, plate reader, cherry-pick, antagonist series (AID 743412); assay type: functional, cell-based
# Streptococcus = assay: GAS UMAA2166 growth inhibition – luminescence, BacTiterGlo, counter-screen for streptokinase expression inhibitor project, dose response (AID 1915); assay type: functional, organism-based;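 also: potency for reduction of bacterial viability or growth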
# Streptokinase A = biological target: T2, Streptokinase A (Streptococcus pyogenes serotype M1, UniProt P10520); assay: viability-normalized secreted streptokinase activity reduction – plasminogen activation absorbance, OD405, dose response (AID 1914); assay type: functional, Streptococcus pyogenes M1 GAS;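 also: secreted streptokinase activity via plasminogen activation per viability signal from cell pellet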
# T2 sequence (P10520 whole entry): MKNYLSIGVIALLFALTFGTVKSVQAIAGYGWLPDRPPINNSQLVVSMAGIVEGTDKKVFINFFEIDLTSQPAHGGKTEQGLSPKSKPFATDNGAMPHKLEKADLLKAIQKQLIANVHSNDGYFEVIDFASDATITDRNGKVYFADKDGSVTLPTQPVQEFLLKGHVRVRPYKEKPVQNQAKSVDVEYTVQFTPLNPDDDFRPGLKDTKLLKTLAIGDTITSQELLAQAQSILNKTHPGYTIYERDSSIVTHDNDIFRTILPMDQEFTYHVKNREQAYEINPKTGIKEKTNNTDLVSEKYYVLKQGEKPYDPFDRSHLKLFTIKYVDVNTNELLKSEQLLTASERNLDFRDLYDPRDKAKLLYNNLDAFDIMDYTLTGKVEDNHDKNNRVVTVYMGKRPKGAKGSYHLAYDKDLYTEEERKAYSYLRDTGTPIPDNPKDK
# [14] = Trypanosoma cruzi growth suppression in host cells – NIH3T3 host cells, beta-gal luminescence, confirmation (AID 2044); assay type: functional, cell-based;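 also: intracellular parasites grown in NIH/3T3 mouse fibroblasts as host cells; luminescent beta-galactosidase reporter signal from transgenic T. cruzi replicating inside host cells; inhibitors lower the luminescence signal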
# [15] = NIH3T3 cell viability loss – ATP luminescence, mouse fibroblasts, counter-screen, dose response (AID 2010); assay type: functional, cell-based;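 also: cells exposed to compound for about 90 hours before reading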
# [16] = biological target: T3, Corticotropin-releasing factor receptor 2/Corticotropin-releasing factor-binding protein (Homo sapiens, UniProt P24387+Q13324); assay: Dose Response confirmation of uHTS hits for small molecule antagonists of the CRF-binding protein and CRF-R2 receptor complex.; assay type: functional; settings: read-out: IC50_Mean
# T3 sequence (Q13324 whole entry): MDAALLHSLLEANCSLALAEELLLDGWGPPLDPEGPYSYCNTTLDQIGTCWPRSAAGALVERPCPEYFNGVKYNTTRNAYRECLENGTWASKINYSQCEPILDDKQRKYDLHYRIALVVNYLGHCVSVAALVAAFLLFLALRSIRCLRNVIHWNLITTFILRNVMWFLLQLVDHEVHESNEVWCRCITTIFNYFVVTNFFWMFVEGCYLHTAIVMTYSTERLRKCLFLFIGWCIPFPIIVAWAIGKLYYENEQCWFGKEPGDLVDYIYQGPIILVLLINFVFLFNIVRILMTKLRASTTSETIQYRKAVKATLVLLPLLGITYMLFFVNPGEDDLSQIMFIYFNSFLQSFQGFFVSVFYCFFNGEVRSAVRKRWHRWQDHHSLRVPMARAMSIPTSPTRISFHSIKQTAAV
# T3 sequence (P24387 whole entry): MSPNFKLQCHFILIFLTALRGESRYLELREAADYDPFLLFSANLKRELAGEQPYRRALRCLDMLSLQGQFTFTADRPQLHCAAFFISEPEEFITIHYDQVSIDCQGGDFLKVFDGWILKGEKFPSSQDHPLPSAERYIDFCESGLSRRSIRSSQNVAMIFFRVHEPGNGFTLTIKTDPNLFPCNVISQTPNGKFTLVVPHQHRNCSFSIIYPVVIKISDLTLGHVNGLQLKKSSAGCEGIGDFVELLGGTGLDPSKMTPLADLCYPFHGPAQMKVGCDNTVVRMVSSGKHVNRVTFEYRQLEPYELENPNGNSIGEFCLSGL
# [17] = biological target: T3, Corticotropin-releasing factor receptor 2/Corticotropin-releasing factor-binding protein; assay: activators of CRF receptor 2 with binding protein – uHTS hits, confirmation (AID 602473); assay type: functional; settings: read-out: EC50_Mean
# Leucine aminopeptidase = biological target: T4, Leucine aminopeptidase (Plasmodium falciparum 3D7, UniProt Q8IL11); assay: P. falciparum M17LAP inhibitors, primary screen, biochemical, fluorogenic H-Leu-NHMec substrate, 1536-well (AID 1619); assay type: functional
# T4 sequence (Q8IL11 whole entry): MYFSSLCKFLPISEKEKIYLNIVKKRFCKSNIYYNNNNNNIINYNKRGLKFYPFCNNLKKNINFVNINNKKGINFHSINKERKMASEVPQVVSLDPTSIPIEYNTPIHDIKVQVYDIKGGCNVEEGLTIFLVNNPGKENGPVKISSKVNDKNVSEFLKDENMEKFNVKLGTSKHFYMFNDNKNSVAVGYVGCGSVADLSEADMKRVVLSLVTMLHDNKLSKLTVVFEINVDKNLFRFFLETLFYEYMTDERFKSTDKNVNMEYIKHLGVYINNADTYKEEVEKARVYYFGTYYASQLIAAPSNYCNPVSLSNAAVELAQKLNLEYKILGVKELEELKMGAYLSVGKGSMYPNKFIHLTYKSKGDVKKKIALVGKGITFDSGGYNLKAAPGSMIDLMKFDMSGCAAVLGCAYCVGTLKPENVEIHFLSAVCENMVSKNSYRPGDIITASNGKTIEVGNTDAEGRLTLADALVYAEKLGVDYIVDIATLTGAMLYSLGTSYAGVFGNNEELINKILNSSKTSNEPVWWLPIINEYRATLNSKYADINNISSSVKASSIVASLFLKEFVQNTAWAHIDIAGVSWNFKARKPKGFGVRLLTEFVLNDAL
# [18] = biological target: T5, Polyadenylate-binding protein 1 (Homo sapiens, UniProt P11940); assay: MLLE domain peptide-binding blockers, IC50 – biochemical, fluorescence polarization, FITC-PAM2 peptide, dose response (AID 602259); assay type: functional; settings: read-out: IC50_Mean
# T5 sequence (P11940 whole entry, the tested form may be a part): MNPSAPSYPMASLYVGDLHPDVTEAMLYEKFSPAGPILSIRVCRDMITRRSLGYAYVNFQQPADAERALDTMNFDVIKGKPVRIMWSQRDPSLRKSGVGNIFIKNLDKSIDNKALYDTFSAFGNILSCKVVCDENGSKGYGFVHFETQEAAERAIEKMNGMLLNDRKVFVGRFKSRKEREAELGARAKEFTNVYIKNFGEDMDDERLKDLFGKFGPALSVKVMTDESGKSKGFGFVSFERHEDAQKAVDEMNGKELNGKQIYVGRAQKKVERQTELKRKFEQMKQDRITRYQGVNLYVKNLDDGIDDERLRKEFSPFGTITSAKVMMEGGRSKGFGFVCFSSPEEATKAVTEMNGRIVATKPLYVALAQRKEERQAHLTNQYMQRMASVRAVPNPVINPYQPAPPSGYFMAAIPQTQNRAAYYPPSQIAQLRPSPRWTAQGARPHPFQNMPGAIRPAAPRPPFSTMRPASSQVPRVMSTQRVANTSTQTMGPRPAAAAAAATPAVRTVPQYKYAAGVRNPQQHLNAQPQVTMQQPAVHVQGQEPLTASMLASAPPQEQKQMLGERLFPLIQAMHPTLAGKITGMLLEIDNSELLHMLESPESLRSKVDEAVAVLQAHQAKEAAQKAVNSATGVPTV
# [19] = biological target: T5, Polyadenylate-binding protein 1; assay: MLLE binding blockers, Cy5 peptide tracer – biochemical, fluorescence polarization, Cy5-PAM2 peptide, secondary, miRNA deadenylation inhibitor project, dose response (AID 602260); assay type: functional; settings: read-out: IC50_Mean
# [20] = microbe, parasite or virus in culture; assay type: functional; settings: Mycobacterium tuberculosis
# BJ [21] = assay: BJ-TERT fibroblast viability loss – cell-based, RAS-independent, luminescence, dose response (AID 1933); assay type: functional; settings: Homo sapiens
# [22] = DRD fibroblast viability loss – cell-based, non-viral oncogenic, luminescence, dose response (AID 1934); assay type: functional; settings: Homo sapiens
# BJ [23] = assay: cells; assay type: functional, cell-based; settings: Homo sapiens
# BJ [24] = assay: BJ-TERT-LT-ST fibroblast viability loss – cell-based, RAS-independent, luminescence, dose response (AID 1935); assay type: functional; settings: Homo sapiens;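 also: BJ fibroblasts immortalized with TERT plus LT and ST oncogenes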
smiles,measurement,setting,value
O=C(CCCN1C(=O)S/C(=C\c2ccccc2)C1=O)NNC(=O)c1ccccc1O,AC50,[1],33.9 µM (active)
same,EC50,[2],15.2 µM (active)
same,IC50,[3],> 80 µM (inactive)
same,EC50,[4],< 100 nM (active)
same,EC50,[5],157 nM (active)
Oc1[nH]c2ccccc2c1N=Nc1nc(Nc2ccccc2)nc(N2CCOCC2)n1,IC50,[3],50.1 µM (inactive)
O=C(c1ccc(Br)o1)N1CCN(c2ccc3nnc(-c4ccccc4)n3n2)CC1,IC50,cells,48.6 µM (active)
O=C(/C=C/c1ccccc1)Nc1sc2c(c1C(=O)O)CCC2,CC50,[6],19.7 µM (active)
same,IC50,cells,26.1 µM (active)
Cn1c(=O)n(CCc2ccccc2)c(=O)c2c1ncn2Cc1ccccc1,EC50,[7],97.4 µM (active)
same,EC50,[8],47.7 µM (active)
O=C(Nc1ccc(F)cc1F)NC1CCN(S(=O)(=O)c2ccc(F)cc2)CC1,CC50,[9],> 40 µM (active)
O=C(O)c1cccc(COc2cccc3ccccc23)c1,CC50,[6],31.1 µM (active)
same,IC50,cells,28.2 µM (active)
COc1ccc2cnn(CCOc3cc(C)ccc3C(C)C)c(=O)c2c1OC,CC50,[9],> 40 µM (active)
Cc1nc2cc(-c3ccc(Cl)cc3)nn2c(C)c1CCC(=O)NCc1ccco1,IC50,[3],> 80 µM (inactive)
CCOc1cccc2sc(Nc3nc4ccc(NC(C)=O)cc4s3)nc12,EC50,[10],23.3 µM (active)
same,AC50,[11],5.46 µM (active)
same,AC50,[12],24.5 µM (active)
same,AC50,[13],9.66 µM (active)
same,EC50,Streptococcus,> 150 µM (not active)
same,EC50,Streptokinase A,> 150 µM (not active)
same,EC50,[14],2.44 µM (active)
same,EC50,[15],> 60 µM (not active)
Cc1cc(=O)[nH]c(SCC(=O)Nc2ccc(Br)cc2)c1C#N,IC50,[16],2.16 µM (active)
same,EC50,[17],8.83 µM (active)
same,EC50,Streptokinase A,> 150 µM (not active)
same,IC50,Leucine aminopeptidase,1.48 µM (active)
CSCCC(NS(=O)(=O)c1ccc2nc(O)c(O)nc2c1)C(=O)O (centres undefined),IC50,Leucine aminopeptidase,6.94 µM (active)
Cc1cccc(N2CCN(C(=O)c3ccccc3NC(=O)C3CC=CCC3C(=O)O)CC2)c1 (centres undefined),IC50,Leucine aminopeptidase,19.1 µM (active)
CCCCCC(=O)NNC(=S)NC(=O)c1ccc([N+](=O)[O-])cc1,IC50,[18],> 66 µM (inactive)
same,IC50,[19],> 66 µM (inactive)
same,CC50,[20],> 40 µM (active)
same,IC50,Leucine aminopeptidase,49.2 µM (active)
O=C(c1cccc(N2C(=O)C3C4C=CC(C4)C3C2=O)c1)N1CCN(c2ccccc2Cl)CC1 (centres undefined),CC50,[6],> 50 µM (active)
same,IC50,cells,32.6 µM (active)
Cc1cc(/C=C(\C#N)C(=O)NCc2ccco2)c(C)n1-c1ccc(C(=O)O)cc1,IC50,Leucine aminopeptidase,41.1 µM (active)
O=C(NC(Cc1ccccc1)c1nc2ccccc2[nH]1)c1cccc([N+](=O)[O-])c1 (centres undefined),CC50,[9],> 40 µM (active)
CC(=O)c1cccc(NC(S)=NCCC2=CCCCC2)c1,EC50,[7],22.6 µM (active)
same,EC50,[8],34 µM (active)
CC(C)N(C(=O)COC(=O)c1ccccc1C(=O)c1ccc(Cl)c([N+](=O)[O-])c1)C(C)C,EC50,BJ [21],15.1 µM (active)
same,EC50,[22],> 150 µM (not active)
same,AC50,[11],> 52 µM (inactive)
same,AC50,[12],> 52 µM (inactive)
same,EC50,BJ [23],> 150 µM (not active)
same,AC50,[13],34.2 µM (active)
same,EC50,BJ [24],> 75 µM (inconclusive)
Cc1ccccc1NC(=O)C1CCCN1S(=O)(=O)c1cccc2cccnc12 (centres undefined),CC50,[6],> 50 µM (active)
same,IC50,cells,19.5 µM (active)
Clc1ccc(OCCCNCc2ccccc2)c(Br)c1,EC50,[7],17.4 µM (active)
same,EC50,[8],23.1 µM (active)
CCC(CO)Oc1cc(NCc2ccccc2O)c2ncn(C(C)C)c2c1 (centres undefined),IC50,[3],> 80 µM (inactive)
CC(C)OCCCNC(=O)c1c(N)n(/N=C/c2ccccn2)c2nc3ccccc3nc12,IC50,[3],> 80 µM (inactive)
CC1=NNC(=O)C1CCC(=O)N/N=C/C=C/c1ccccc1 (centres undefined),IC50,Leucine aminopeptidase,51.4 µM (active)

# — ChEMBL document CHEMBL1201862, “PubChem BioAssay data set” (2004)
